In patent US20240158446A1, “CYCLIC COMPOUND HAVING SELECTIVE INHIBITORY ACTION ON KRAS OVER HRAS AND NRAS” (CHUGAI SEIYAKU KABUSHIKI KAISHA, priority 2021, published 2024):
Values belong to the compound of their own block, whether it stands above or below them.

Columns and labels:
[1] = system: human lung cancer strain NCI-H441; assay: cells; settings: NCI-H441, 96 h, read-out: NCI-H441 IC50 (nM), NCI-H441 cell proliferation, 4 days, CellTiter-Glo;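 also: cell proliferation inhibition after four days measured by CellTiter-Glo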
[2] = target: GDP-bound NRAS wild-type protein (Homo sapiens, UniProt P01111); assay: Binding to NRAS by surface plasmon resonance (SPR), Single Cycle Kinetics; settings: ratio of KD for GDP-bound NRAS wild-type protein to KD for KRAS, SPR
[3] = target: GDP-bound HRAS wild-type protein (Homo sapiens, UniProt P01112); assay: Binding to HRAS by surface plasmon resonance (SPR), Single Cycle Kinetics; settings: ratio of KD for GDP-bound HRAS wild-type protein to KD for KRAS, SPR
Chain of GDP-bound HRAS wild-type protein (P01112 whole entry): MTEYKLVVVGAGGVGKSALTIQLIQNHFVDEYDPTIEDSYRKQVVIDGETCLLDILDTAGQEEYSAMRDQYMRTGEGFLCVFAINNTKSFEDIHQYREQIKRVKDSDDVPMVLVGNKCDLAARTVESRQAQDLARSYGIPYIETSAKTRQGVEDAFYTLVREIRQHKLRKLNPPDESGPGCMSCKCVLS

Chain of GDP-bound NRAS wild-type protein (P01111 whole entry): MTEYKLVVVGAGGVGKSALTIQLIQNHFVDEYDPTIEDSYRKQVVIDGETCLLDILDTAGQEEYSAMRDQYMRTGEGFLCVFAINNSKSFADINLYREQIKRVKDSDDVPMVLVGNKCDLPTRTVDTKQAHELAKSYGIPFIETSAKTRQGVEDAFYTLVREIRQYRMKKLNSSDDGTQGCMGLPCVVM

SMILES: CCO[C@@H]1C[C@H]2C(=O)NC3(CCC3)C(=O)N(C)[C@@H](C3CCCC3)C(=O)N(C)[C@H](C(=O)N(C)CC)CC(=O)N(C)[C@@H](CC(F)(F)F)C(=O)N[C@@H]([C@@H](C)CC)C(=O)N(C)CC(=O)N(C)[C@H]3C/C=C\CCN(C3=O)[C@@H](Cc3ccc(C(F)(F)F)cc3)C(=O)N(C)CC(=O)N[C@@H](CCc3cc(F)c(C(F)(F)F)c(F)c3)C(=O)N2C1 [PP1701]
IC50 [1]: 3.7 nM
NRAS/KRAS (KD ratio) [2]: A (a compound having 10 or more and less than 20 is denoted as A)
HRAS/KRAS (KD ratio) [3]: A (a compound having 10 or more and less than 20 is denoted as A)

SMILES: CCO[C@@H]1C[C@H]2C(=O)NC(C)(C)C(=O)N(C)[C@@H](C3CCCC3)C(=O)N(C)[C@H](C(=O)N(C)CC)CC(=O)N(C)[C@@H](CC(C)C)C(=O)N[C@@H]([C@@H](C)CC)C(=O)N(C)CC(=O)N(C)[C@H]3C/C=C\CCN(C3=O)[C@@H](Cc3ccc(C(F)(F)F)cc3)C(=O)N(C)CC(=O)N[C@@H](CCc3cc(F)c(C(F)(F)F)c(F)c3)C(=O)N2C1 [PP1937]
IC50 [1]: 6.8 nM
NRAS/KRAS (KD ratio) [2]: A (a compound having 10 or more and less than 20 is denoted as A)
HRAS/KRAS (KD ratio) [3]: A (a compound having 10 or more and less than 20 is denoted as A)

SMILES: CCCN(C)C(=O)[C@@H]1CC(=O)N(C)[C@@H](C2CCC2)C(=O)N[C@@H]([C@@H](C)CC)C(=O)N(C)CC(=O)N(C)[C@H]2C/C=C\CCN(C2=O)[C@@H](Cc2ccc(C(F)(F)F)cc2)C(=O)N(C)CC(=O)N[C@@H](CCc2ccc(C(F)(F)F)c(OC)c2)C(=O)N2C[C@H](OCC)C[C@H]2C(=O)NC2(CCC2)C(=O)N(C)[C@@H](C2CCCC2)C(=O)N1C [PP2023]
IC50 [1]: 10.5 nM
NRAS/KRAS (KD ratio) [2]: A (a compound having 10 or more and less than 20 is denoted as A)
HRAS/KRAS (KD ratio) [3]: B (a compound having 3 or more and less than 10 is denoted as B)

More lines, main results first:

IC50 [1]: 10.3 nM
SMILES: CCC[C@H]1C(=O)N[C@@H]([C@@H](C)CC)C(=O)N(C)CC(=O)N(C)[C@H]2C/C=C\CCN(C2=O)[C@@H](Cc2ccc(C)cc2)C(=O)N(C)CC(=O)N[C@@H](CCc2cc(F)c(C(F)(F)F)c(F)c2)C(=O)N2C[C@@H](C)C[C@H]2C(=O)NC2(CCC2)C(=O)N(C)[C@@H](C2CCCC2)C(=O)N(C)[C@H](C(=O)N(C)CC)CC(=O)N1C [PP1860]
NRAS/KRAS (KD ratio) [2]: A (a compound having 10 or more and less than 20 is denoted as A)
HRAS/KRAS (KD ratio) [3]: A (a compound having 10 or more and less than 20 is denoted as A)

IC50 [1]: 3 nM
SMILES: CCO[C@@H]1C[C@H]2C(=O)N(C)C3(CCC3)C(=O)N(C)[C@@H](C3CCCC3)C(=O)N(C)[C@H](C(=O)N(C)C)CC(=O)N(C)[C@@H](CC3CC3)C(=O)N[C@@H]([C@@H](C)CC)C(=O)N(C)CC(=O)N(C)[C@H]3C/C=C\CCN(C3=O)[C@@H](Cc3ccc(C)cc3)C(=O)N(C)CC(=O)N[C@@H](CCc3cc(F)c(C(F)(F)F)c(F)c3)C(=O)N2C1 [PP1795]
NRAS/KRAS (KD ratio) [2]: A (a compound having 10 or more and less than 20 is denoted as A)
HRAS/KRAS (KD ratio) [3]: B (a compound having 3 or more and less than 10 is denoted as B)

IC50 [1]: 5.5 nM
SMILES: CCO[C@@H]1C[C@H]2C(=O)NC3(CC(C)(C)C3)C(=O)N(C)[C@@H](C3CCCC3)C(=O)N(C)[C@H](C(=O)N(C)C)CC(=O)N(C)[C@@H](CC3CC3)C(=O)N[C@@H]([C@@H](C)CC)C(=O)N(C)CC(=O)N(C)[C@H]3C/C=C\CCN(C3=O)[C@@H](Cc3ccc(C)cc3)C(=O)N(C)CC(=O)N[C@@H](CCc3ccc(C(F)(F)F)c(OC)c3)C(=O)N2C1 [PP1903]
NRAS/KRAS (KD ratio) [2]: A (a compound having 10 or more and less than 20 is denoted as A)
HRAS/KRAS (KD ratio) [3]: B (a compound having 3 or more and less than 10 is denoted as B)
